According to the NIST ThermoML archive (doi:10.1021/je050406x):
Numbers after ± are expanded uncertainties.

Tests used:
[1] = Crystal; DTA
[2] = Molar enthalpy of transition or fusion; conditions: Crystal; DSC

Normal melting temperature [1]: 28.26 ± 0.5 °C
Molar enthalpy of transition or fusion [2]: 3.75 ± 0.0908 kcal/mol
Structure (SMILES): O=C1COCCO1 [1,4-dioxan-2-one]
